Results as given in paper PMC5218480 (PLoS ONE, 2017).

System: MV-4-11 cells
Test: Gene expression microarray analysis (Affymetrix PrimeView) and GSEA
Assay type: cell-based, human
Set-up: RFU PODN (11730768_x_at) / Fold change /veh PODN (11730768_x_at) / RFU LINC00158 (11744669_a_at) / Fold change /veh LINC00158 (11744669_a_at) / RFU DUSP10 (11751237_a_at) / Fold change /veh DUSP10 (11751237_a_at) / RFU ID3 (11757404_x_at) / Fold change /veh ID3 (11757404_x_at) / RFU PLEKHG5 (11737974_s_at) / Fold change /veh PLEKHG5 (11737974_s_at) / RFU LRRC4B (11730491_at) / Fold change /veh LRRC4B (11730491_at) / RFU GIMAP4 (11747438_a_at) / Fold change /veh GIMAP4 (11747438_a_at) / RFU KRT8 (11758183_x_at) / Fold change /veh KRT8 (11758183_x_at) / RFU CNN1 (11734310_a_at) / Fold change /veh CNN1 (11734310_a_at) / RFU VPS37D (11726825_at) / Fold change /veh VPS37D (11726825_at) / RFU C10orf10 (11716522_x_at) / Fold change /veh C10orf10 (11716522_x_at) / RFU KIR2DL2 /// KIR2DL4 /// KIR2DL5A /// KIR2DL5B /// KIR2DS1 /// KIR2DS2 /// KIR2DS3 /// KIR2DS4 /// KIR3DL3 /// KIR3DL3 /// KIR3DS1 (11738374_at) / Fold change /veh KIR2DL2 /// KIR2DL4 /// KIR2DL5A /// KIR2DL5B /// KIR2DS1 /// KIR2DS2 /// KIR2DS3 /// KIR2DS4 /// KIR3DL3 /// KIR3DL3 /// KIR3DS1 (11738374_at) / RFU C1QL1 (11718748_at) / Fold change /veh C1QL1 (11718748_at) / RFU TMPRSS4 (11747572_a_at) / Fold change /veh TMPRSS4 (11747572_a_at) / RFU HAMP (11756126_x_at) / Fold change /veh HAMP (11756126_x_at) / RFU RNFT2 (11725882_a_at) / Fold change /veh RNFT2 (11725882_a_at) / RFU NR4A2 (11747474_a_at) / Fold change /veh NR4A2 (11747474_a_at) / RFU ABCC12 (11746883_a_at) / Fold change /veh ABCC12 (11746883_a_at) / RFU TMEM136 (11760407_x_at) / Fold change /veh TMEM136 (11760407_x_at) / RFU CLDN22 /// WWC2 (11732394_at) / Fold change /veh CLDN22 /// WWC2 (11732394_at) / RFU HLA-DPB1 (11760878_x_at) / Fold change /veh HLA-DPB1 (11760878_x_at) / RFU SPINT1 (11716480_a_at) / Fold change /veh SPINT1 (11716480_a_at) / RFU GAP43 (11754022_s_at) / Fold change /veh GAP43 (11754022_s_at) / RFU A4GNT (11735810_at) / Fold change /veh A4GNT (11735810_at) / RFU PRB3 (11715151_x_at) / Fold change /veh PRB3 (11715151_x_at) / RFU TUBB4B (11761932_at) / Fold change /veh TUBB4B (11761932_at) / RFU CAPN14 (11732068_a_at) / Fold change /veh CAPN14 (11732068_a_at) / RFU TMCC2 (11721928_a_at) / Fold change /veh TMCC2 (11721928_a_at) / RFU IRGQ (11745062_a_at) / Fold change /veh IRGQ (11745062_a_at) / RFU FAM174B (11720279_a_at) / Fold change /veh FAM174B (11720279_a_at) / RFU TMPRSS4 (11748680_a_at) / Fold change /veh TMPRSS4 (11748680_a_at) / RFU FAM212B (11763350_a_at) / Fold change /veh FAM212B (11763350_a_at) / RFU PLEKHG5 (11743358_a_at) / Fold change /veh PLEKHG5 (11743358_a_at) / RFU ZSCAN30 (11745921_a_at) / Fold change /veh ZSCAN30 (11745921_a_at) / RFU CMKLR1 (11741424_a_at) / Fold change /veh CMKLR1 (11741424_a_at) / RFU LOC101060620 /// MAPK8IP1 (11723275_at) / Fold change /veh LOC101060620 /// MAPK8IP1 (11723275_at) / RFU SPTSSB (11747773_x_at) / Fold change /veh SPTSSB (11747773_x_at) / RFU PRSS12 (11739890_at) / Fold change /veh PRSS12 (11739890_at) / RFU BIN1 (11741810_x_at) / Fold change /veh BIN1 (11741810_x_at) / RFU WNT11 (11732464_a_at) / Fold change /veh WNT11 (11732464_a_at) / RFU C10orf10 (11716521_a_at) / Fold change /veh C10orf10 (11716521_a_at) / RFU C5orf56 (11738089_at) / Fold change /veh C5orf56 (11738089_at) / RFU CYB561 (11721691_x_at) / Fold change /veh CYB561 (11721691_x_at) / RFU ANKRD19P (11752326_a_at) / Fold change /veh ANKRD19P (11752326_a_at) / RFU OR2T12 /// OR2T33 /// OR2T8 (11738714_s_at) / Fold change /veh OR2T12 /// OR2T33 /// OR2T8 (11738714_s_at) / RFU VCAN (11748164_a_at) / Fold change /veh VCAN (11748164_a_at) / RFU JSRP1 (11732532_at) / Fold change /veh JSRP1 (11732532_at) / RFU KRTAP10-11 (11738290_x_at) / Fold change /veh KRTAP10-11 (11738290_x_at) / RFU MYO3A (11730013_a_at) / Fold change /veh MYO3A (11730013_a_at) / RFU EBF3 (11725865_a_at) / Fold change /veh EBF3 (11725865_a_at) / RFU CAMK2N1 (11719241_x_at) / Fold change /veh CAMK2N1 (11719241_x_at) / RFU C5orf56 (11738088_a_at) / Fold change /veh C5orf56 (11738088_a_at) / RFU OLFML3 (11715873_a_at) / Fold change /veh OLFML3 (11715873_a_at) / RFU LOC100653217 /// NTM (11731650_a_at) / Fold change /veh LOC100653217 /// NTM (11731650_a_at) / RFU MAPK11 (11762145_a_at) / Fold change /veh MAPK11 (11762145_a_at) / RFU FIZ1 (11724087_x_at) / Fold change /veh FIZ1 (11724087_x_at) / RFU OASL (11726364_x_at) / Fold change /veh OASL (11726364_x_at) / RFU SOX15 (11748057_x_at) / Fold change /veh SOX15 (11748057_x_at) / RFU CD79A (11719716_a_at) / Fold change /veh CD79A (11719716_a_at) / RFU HIST1H1D (11736915_at) / Fold change /veh HIST1H1D (11736915_at) / RFU CASKIN2 (11723855_a_at) / Fold change /veh CASKIN2 (11723855_a_at) / RFU LOC730098 (11760151_x_at) / Fold change /veh LOC730098 (11760151_x_at) / RFU OR4N2 (11742367_at) / Fold change /veh OR4N2 (11742367_at) / RFU PRRT2 (11749266_a_at) / Fold change /veh PRRT2 (11749266_a_at) / RFU SNX32 (11753110_a_at) / Fold change /veh SNX32 (11753110_a_at) / RFU CDHR5 (11726645_a_at) / Fold change /veh CDHR5 (11726645_a_at) / RFU RCAN1 (11760418_a_at) / Fold change /veh RCAN1 (11760418_a_at) / RFU FAM167A (11723789_a_at) / Fold change /veh FAM167A (11723789_a_at) / RFU FAM26E (11764081_at) / Fold change /veh FAM26E (11764081_at) / RFU ISYNA1 (11749810_s_at) / Fold change /veh ISYNA1 (11749810_s_at) / RFU ACY1 (11761880_at) / Fold change /veh ACY1 (11761880_at) / RFU 11764098_at / Fold change /veh 11764098_at / RFU SAMD14 (11745864_x_at) / Fold change /veh SAMD14 (11745864_x_at) / RFU NPB (11741838_a_at) / Fold change /veh NPB (11741838_a_at) / RFU TMPRSS6 (11731388_a_at) / Fold change /veh TMPRSS6 (11731388_a_at) / RFU KRTAP10-2 (11738614_at) / Fold change /veh KRTAP10-2 (11738614_at) / RFU ARHGAP8 /// PRR5-ARHGAP8 (11727945_x_at) / Fold change /veh ARHGAP8 /// PRR5-ARHGAP8 (11727945_x_at) / RFU KRTAP5-7 /// NADSYN1 (11734609_at) / Fold change /veh KRTAP5-7 /// NADSYN1 (11734609_at) / RFU RASL12 (11751679_a_at) / Fold change /veh RASL12 (11751679_a_at) / RFU CDKN2B (11736163_a_at) / Fold change /veh CDKN2B (11736163_a_at) / RFU PRF1 (11729649_at) / Fold change /veh PRF1 (11729649_at) / RFU, ZNF638 /// ZNF638-IT1 / Fold change vs veh, ZNF638 /// ZNF638-IT1 / RFU, PANK3 / Fold change vs veh, PANK3 / RFU, SH3YL1 / Fold change vs veh, SH3YL1 / RFU, ZEB2 / Fold change vs veh, ZEB2 / RFU, NRIP1 / Fold change vs veh, NRIP1 / RFU, PTTG1IP / Fold change vs veh, PTTG1IP / RFU, CAPN2 / Fold change vs veh, CAPN2 / RFU, MED14 / Fold change vs veh, MED14 / RFU, SNORA58 / Fold change vs veh, SNORA58 / RFU, C1orf63 / Fold change vs veh, C1orf63 / RFU, LRRFIP1 / Fold change vs veh, LRRFIP1 / RFU, NDUFAF7 / Fold change vs veh, NDUFAF7 / RFU, SLC12A2 / Fold change vs veh, SLC12A2 / RFU, IBTK / Fold change vs veh, IBTK / RFU, ESF1 / Fold change vs veh, ESF1 / Fold change vs veh, TMEM50B / RFU, TAOK1 / Fold change vs veh, TAOK1 / RFU, ACBD3 / Fold change vs veh, ACBD3 / RFU, TMA16 / Fold change vs veh, TMA16 / RFU, RWDD3 / Fold change vs veh, RWDD3 / RFU, BCAT1 / Fold change vs veh, BCAT1 / RFU, EDEM3 / Fold change vs veh, EDEM3 / RFU, TMEM33 / Fold change vs veh, TMEM33 / RFU, WDR75 / Fold change vs veh, WDR75 / RFU, AHCTF1 / Fold change vs veh, AHCTF1 / RFU, TFRC / Fold change vs veh, TFRC / RFU, ZDHHC17 / Fold change vs veh, ZDHHC17 / RFU, NOM1 / Fold change vs veh, NOM1 / RFU, ARL8B / Fold change vs veh, ARL8B / RFU, ZBTB11 / Fold change vs veh, ZBTB11 / RFU, TAMM41 / Fold change vs veh, TAMM41 / RFU, KIAA1704 /// LOC100996395 / Fold change vs veh, KIAA1704 /// LOC100996395 / RFU, ING1 / Fold change vs veh, ING1 / RFU, TRMT61B / Fold change vs veh, TRMT61B / RFU, FUBP3 / Fold change vs veh, FUBP3 / RFU, TP53 / Fold change vs veh, TP53 / RFU, TNKS2 / Fold change vs veh, TNKS2 / RFU, ZFP14 / Fold change vs veh, ZFP14 / RFU, ACTR2 / Fold change vs veh, ACTR2 / RFU, PPP3R1 / Fold change vs veh, PPP3R1 / RFU, PIK3R1 / Fold change vs veh, PIK3R1 / RFU, HNRNPA1 / Fold change vs veh, HNRNPA1 / RFU, RNF170 / Fold change vs veh, RNF170 / RFU, ZNF28 / Fold change vs veh, ZNF28 / RFU, RNGTT / Fold change vs veh, RNGTT / RFU, OGT / Fold change vs veh, OGT / RFU, BRD1 / Fold change vs veh, BRD1 / RFU, MARS / Fold change vs veh, MARS / RFU, ZNF655 / Fold change vs veh, ZNF655 / RFU, FAHD1 / Fold change vs veh, FAHD1 / RFU, BDP1 / Fold change vs veh, BDP1 / RFU, LRRCC1 / Fold change vs veh, LRRCC1 / RFU, ARID1A / Fold change vs veh, ARID1A / RFU, ZNF146 / Fold change vs veh, ZNF146 / RFU, ZNF330 / Fold change vs veh, ZNF330 / RFU, GPN3 / Fold change vs veh, GPN3 / RFU, C9orf123 / Fold change vs veh, C9orf123 / RFU, N4BP2L2 / Fold change vs veh, N4BP2L2 / RFU, ARFIP1 / Fold change vs veh, ARFIP1 / RFU, FAM179B / Fold change vs veh, FAM179B / RFU, BCL10 / Fold change vs veh, BCL10 / RFU, UHRF1BP1L / Fold change vs veh, UHRF1BP1L / RFU, BET1 / Fold change vs veh, BET1 / RFU, CNOT2 / Fold change vs veh, CNOT2 / RFU, ZNF268 / Fold change vs veh, ZNF268 / Fold change vs veh, ZNF507 / RFU, DGCR2 / Fold change vs veh, DGCR2 / RFU, WDSUB1 / Fold change vs veh, WDSUB1 / Fold change vs veh, HSP90B1 /// MIR3652 / RFU, ADSS / Fold change vs veh, ADSS / RFU, GK / Fold change vs veh, GK / RFU, ZNF148 / Fold change vs veh, ZNF148 / RFU, TAF9 / Fold change vs veh, TAF9 / RFU, SLC1A5 / Fold change vs veh, SLC1A5 / RFU, SLMO2 / Fold change vs veh, SLMO2 / RFU, ABCC4 / Fold change vs veh, ABCC4 / RFU, LOC101060439 /// RAP1B / Fold change vs veh, LOC101060439 /// RAP1B / RFU, RFX7 / Fold change vs veh, RFX7 / RFU, GTPBP10 / Fold change vs veh, GTPBP10 / RFU, CNEP1R1 / Fold change vs veh, CNEP1R1 / RFU, BIVM-ERCC5 /// ERCC5 / Fold change vs veh, BIVM-ERCC5 /// ERCC5 / RFU, ILF3 / Fold change vs veh, ILF3 / RFU 11762660_at / Fold change /veh 11762660_at / RFU VCAN (11757783_s_at) / Fold change /veh VCAN (11757783_s_at) / RFU DDX43 (11728927_at) / Fold change /veh DDX43 (11728927_at) / RFU KRT8 (11758188_x_at) / Fold change /veh KRT8 (11758188_x_at) / RFU NKD1 (11759106_at) / Fold change /veh NKD1 (11759106_at) / RFU SRD5A1 (11742802_a_at) / Fold change /veh SRD5A1 (11742802_a_at) / RFU TPSAB1 /// TPSB2 (11721975_s_at) / Fold change /veh TPSAB1 /// TPSB2 (11721975_s_at) / RFU GSTM3 (11746129_a_at) / Fold change /veh GSTM3 (11746129_a_at) / RFU IL23R (11737362_x_at) / Fold change /veh IL23R (11737362_x_at) / RFU TMEM51 (11727254_a_at) / Fold change /veh TMEM51 (11727254_a_at) / RFU PIWIL2 (11732686_x_at) / Fold change /veh PIWIL2 (11732686_x_at) / RFU ORM1 (11744905_x_at) / Fold change /veh ORM1 (11744905_x_at) / RFU CCDC152 (11743942_at) / Fold change /veh CCDC152 (11743942_at) / RFU ECM1 (11717891_a_at) / Fold change /veh ECM1 (11717891_a_at) / RFU IL23R (11748794_a_at) / Fold change /veh IL23R (11748794_a_at) / RFU TNFAIP8L3 (11732012_x_at) / Fold change /veh TNFAIP8L3 (11732012_x_at) / RFU MBOAT4 (11741988_at) / Fold change /veh MBOAT4 (11741988_at) / RFU 11764193_at / Fold change /veh 11764193_at / RFU TMEM53 (11763286_at) / Fold change /veh TMEM53 (11763286_at) / RFU MAGEB2 (11727129_at) / Fold change /veh MAGEB2 (11727129_at) / RFU TMEM200A (11744735_a_at) / Fold change /veh TMEM200A (11744735_a_at) / RFU CCDC152 (11751479_a_at) / Fold change /veh CCDC152 (11751479_a_at) / RFU FAM211A (11726209_a_at) / Fold change /veh FAM211A (11726209_a_at) / RFU RGS16 (11746705_a_at) / Fold change /veh RGS16 (11746705_a_at) / RFU VCAN (11755009_s_at) / Fold change /veh VCAN (11755009_s_at) / RFU RHOB (11743442_s_at) / Fold change /veh RHOB (11743442_s_at) / RFU RGS16 (11720943_a_at) / Fold change /veh RGS16 (11720943_a_at) / RFU RGS16 (11720944_at) / Fold change /veh RGS16 (11720944_at) / RFU, VPS4B / Fold change vs veh, VPS4B / RFU, CREB1 / Fold change vs veh, CREB1 / RFU, DNAJC13 / Fold change vs veh, DNAJC13 / RFU, GNAQ / Fold change vs veh, GNAQ / RFU, CDK5R1 / Fold change vs veh, CDK5R1 / RFU, ZRANB3 / Fold change vs veh, ZRANB3 / RFU, CUL4A / Fold change vs veh, CUL4A / RFU, CCNY / Fold change vs veh, CCNY / RFU, UFL1 / Fold change vs veh, UFL1 / RFU, COG3 / Fold change vs veh, COG3 / RFU, DIAPH2 / Fold change vs veh, DIAPH2 / RFU, SKA2 / Fold change vs veh, SKA2 / RFU, AFF3 / Fold change vs veh, AFF3 / RFU, LMF1 / Fold change vs veh, LMF1 / RFU, IPO11 / Fold change vs veh, IPO11 / RFU, DFFB / Fold change vs veh, DFFB / RFU, FOXP1 / Fold change vs veh, FOXP1 / RFU, CARD8 / Fold change vs veh, CARD8 / RFU, STRN3 / Fold change vs veh, STRN3 / RFU, ADK / Fold change vs veh, ADK / RFU, RASSF2 / Fold change vs veh, RASSF2 / RFU, WIPF1 / Fold change vs veh, WIPF1 / RFU, LARP1B / Fold change vs veh, LARP1B / RFU, RASA1 / Fold change vs veh, RASA1 / RFU, RB1 / Fold change vs veh, RB1 / RFU, PPFIA1 / Fold change vs veh, PPFIA1 / RFU, MAT2A / Fold change vs veh, MAT2A / RFU, CCT5 / Fold change vs veh, CCT5 / RFU, WDR92 / Fold change vs veh, WDR92 / RFU, CUX1 / Fold change vs veh, CUX1 / RFU, TTC7A / Fold change vs veh, TTC7A / RFU, TMEM135 / Fold change vs veh, TMEM135 / RFU, DEPTOR / Fold change vs veh, DEPTOR / RFU, CPM / Fold change vs veh, CPM / RFU, DNAJB6 / Fold change vs veh, DNAJB6 / RFU, CACNA2D3 / Fold change vs veh, CACNA2D3 / RFU, DTX4 / Fold change vs veh, DTX4 / RFU, TFCP2 / Fold change vs veh, TFCP2 / RFU, GMCL1 /// GMCL1P1 / Fold change vs veh, GMCL1 /// GMCL1P1 / RFU, AEBP2 / Fold change vs veh, AEBP2 / RFU, SNHG1 /// SNORD22 /// SNORD25 /// SNORD26 /// SNORD27 /// SNORD28 /// SNORD29 /// SNORD31 / Fold change vs veh, SNHG1 /// SNORD22 /// SNORD25 /// SNORD26 /// SNORD27 /// SNORD28 /// SNORD29 /// SNORD31 / Fold change (Aza/veh), C12orf56 (ProbeSet 11735607_a_at) / Fold change (ACY-1035/veh), C12orf56 (ProbeSet 11735607_a_at) / Fold change (Aza/veh), FGFR1OP (ProbeSet 11751329_s_at) / Fold change (ACY-1035/veh), FGFR1OP (ProbeSet 11751329_s_at) / Fold change (Aza/veh), VPS36 (ProbeSet 11739960_a_at) / Fold change (ACY-1035/veh), VPS36 (ProbeSet 11739960_a_at) / RFU SYPL1 (11715823_x_at) / Fold change /veh SYPL1 (11715823_x_at) / RFU IGFBP7 (11715501_s_at) / Fold change /veh IGFBP7 (11715501_s_at) / RFU REEP3 (11722064_at) / Fold change /veh REEP3 (11722064_at) / RFU IGLL1 (11728026_x_at) / Fold change /veh IGLL1 (11728026_x_at): dose or concentration left out as unconfirmed
Conditions: MV-4-11 cells, 48 hours

SMILES: Nc1ncn([C@@H]2O[C@H](CO)[C@@H](O)[C@H]2O)c(=O)n1 [azacitidine]
- Fold change /veh RHOB (11743442_s_at): 1.27
